Assay results from the supplement of paper PMC6045584.
± gives the standard deviation of the averaged measurements.

Tests used:
SAPACITABINE = compound: CCCCCCCCCCCCCCCC(=O)Nc1ccn([C@@H]2O[C@H](CO)[C@@H](O)[C@@H]2C#N)c(=O)n1 [SAPACITABINE]; assay: surviving fraction relative to DMSO-only wells; higher = less growth inhibition; settings: exposure time: 5 days
Outline: (§1)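 Inhibitors were tested at 0.5, 1, 5, 10, 50, 100, 500 and 1000 nM, applied continuously for five days beginning 24 hours after log-phase tumour cells were seeded at 250–500 per well in 384-well plates. CellTiter-Glo luminescence served as the viability measure, expressed as surviving fraction against the median of DMSO-only wells. Each line, screened three times, was kept only with replicate Pearson r >0.7 and median Z' >0.3.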

SNX-5422 = compound: CC1(C)CC(=O)c2c(C(F)(F)F)nn(-c3ccc(C(N)=O)c(N[C@H]4CC[C@H](OC(=O)CN)CC4)c3)c2C1 [SNX-5422]; assay: as above; settings: exposure time: 5 days
Outline: as §1

| Test System | surviving fraction (SAPACITABINE; 0.5 nM) | surviving fraction (SAPACITABINE; 1 nM) | surviving fraction (SAPACITABINE; 5 nM) | surviving fraction (SAPACITABINE; 10 nM) | surviving fraction (SAPACITABINE; 50 nM) | surviving fraction (SAPACITABINE; 100 nM) | surviving fraction (SAPACITABINE; 500 nM) | surviving fraction (SAPACITABINE; 1000 nM) | surviving fraction (SNX-5422; 0.5 nM) | surviving fraction (SNX-5422; 1 nM) | surviving fraction (SNX-5422; 5 nM) | surviving fraction (SNX-5422; 10 nM) | surviving fraction (SNX-5422; 50 nM) | surviving fraction (SNX-5422; 100 nM) | surviving fraction (SNX-5422; 500 nM) | surviving fraction (SNX-5422; 1000 nM) |
| --- | --- | --- | --- | --- | --- | --- | --- | --- | --- | --- | --- | --- | --- | --- | --- | --- |
| MHM BONE | 0.975 ± 0.036 | 0.97 ± 0.058 | 0.978 ± 0.034 | 0.996 ± 0.028 | 0.951 ± 0.027 | 0.789 ± 0.043 | 0.305 ± 0.012 | 0.262 ± 0.03 | 1.01 ± 0.018 | 1.04 ± 0.015 | 1.04 ± 0.023 | 1.06 ± 0.013 | 1.02 ± 0.015 | 0.635 ± 0.047 | 0.186 ± 0.0096 | 0.149 ± 0.0076 |
| NCIH441 LUNG | 1.042 ± 0.009 | 0.975 ± 0.077 | 1.02 ± 0.036 | 0.913 ± 0.034 | 0.53 ± 0.023 | 0.363 ± 0.051 | 0.34 ± 0.025 | 0.312 ± 0.023 | 0.996 ± 0.029 | 0.976 ± 0.036 | 0.972 ± 0.076 | 1.03 ± 0.062 | 0.748 ± 0.093 | 0.748 ± 0.062 | 0.365 ± 0.04 | 0.324 ± 0.019 |
| NOS1 BONE | 0.853 ± 0.16 | 0.774 ± 0.081 | 0.938 ± 0.16 | 0.863 ± 0.062 | 0.968 ± 0.12 | 0.973 ± 0.13 | 0.811 ± 0.059 | 0.764 ± 0.14 | 1.1 ± 0.11 | 1.08 ± 0.052 | 1.16 ± 0.067 | 0.947 ± 0.056 | 0.451 ± 0.037 | 0.276 ± 0.012 | 0.113 ± 0.0076 | 0.117 ± 0.014 |
| NY BONE | 0.923 ± 0.043 | 0.872 ± 0.042 | 0.911 ± 0.024 | 0.812 ± 0.026 | 0.368 ± 0.02 | 0.262 ± 0.011 | 0.133 ± 0.0087 | 0.147 ± 0.0076 | 0.9907 ± 0.0074 | 1.01 ± 0.04 | 1.05 ± 0.045 | 1.03 ± 0.047 | 0.086 ± 0.0061 | 0.128 ± 0.012 | 0.0563 ± 0.0047 | 0.054 ± 0.0078 |
| OS25HAL BONE | 0.868 ± 0.022 | 0.8983 ± 0.0076 | 0.834 ± 0.0066 | 0.855 ± 0.059 | 0.974 ± 0.036 | 0.925 ± 0.015 | 0.293 ± 0.019 | 0.15 ± 0.014 | 0.9827 ± 0.0029 | 1.004 ± 0.0087 | 1.03 ± 0.019 | 0.998 ± 0.036 | 0.789 ± 0.12 | 0.257 ± 0.031 | 0.13 ± 0.018 | 0.132 ± 0.023 |
| OSHN BONE | 0.902 ± 0.034 | 0.917 ± 0.024 | 0.92 ± 0.013 | 0.891 ± 0.014 | 0.998 ± 0.02 | 0.928 ± 0.011 | 0.345 ± 0.032 | 0.158 ± 0.011 | 1.1 ± 0.024 | 1.11 ± 0.036 | 1.11 ± 0.012 | 1.1 ± 0.018 | 0.842 ± 0.067 | 0.162 ± 0.0064 | 0.138 ± 0.0047 | 0.136 ± 0.0076 |
| PCI30 HEADNECK | 0.899 ± 0.053 | 0.916 ± 0.046 | 0.946 ± 0.039 | 0.984 ± 0.051 | 0.965 ± 0.027 | 0.801 ± 0.023 | 0.555 ± 0.028 | 1.05 ± 0.13 | 1.08 ± 0.073 | 1.06 ± 0.086 | 1.13 ± 0.041 | 1.17 ± 0.14 | 0.716 ± 0.05 | 0.316 ± 0.065 | 0.0417 ± 0.0046 | 0.039 ± 0.001 |
| SAOS2 BONE | 0.806 ± 0.032 | 0.811 ± 0.019 | 0.875 ± 0.029 | 0.779 ± 0.057 | 0.776 ± 0.013 | 0.566 ± 0.071 | 0.199 ± 0.018 | 0.153 ± 0.017 | 1.15 ± 0.034 | 1.14 ± 0.075 | 1.16 ± 0.029 | 1.15 ± 0.027 | 0.123 ± 0.015 | 0.0737 ± 0.0011 | 0.076 | 0.0853 ± 0.0029 |
| SCC003 HEADNECK | 0.85 ± 0.04 | 0.797 ± 0.068 | 0.885 ± 0.028 | 0.784 ± 0.047 | 1.05 ± 0.041 | 0.879 ± 0.026 | 0.481 ± 0.003 | 0.339 ± 0.014 | 1.16 ± 0.017 | 1.15 ± 0.12 | 1.16 ± 0.081 | 1.13 ± 0.054 | 0.608 ± 0.023 | 0.384 ± 0.091 | 0.0973 ± 0.004 | 0.0767 ± 0.0055 |
| SCC36 HEADNECK | 0.776 ± 0.055 | 0.793 ± 0.048 | 0.815 ± 0.05 | 0.797 ± 0.11 | 1.02 ± 0.16 | 0.939 ± 0.092 | 0.737 ± 0.064 | 0.577 ± 0.0091 | 1.05 ± 0.13 | 1.11 ± 0.086 | 1.19 ± 0.13 | 1.19 ± 0.089 | 0.434 ± 0.067 | 0.27 ± 0.041 | 0.0367 ± 0.0064 | 0.039 ± 0.004 |
| SCC90 HEADNECK | 0.88 ± 0.089 | 0.794 ± 0.074 | 0.862 ± 0.011 | 0.848 ± 0.053 | 1.06 ± 0.13 | 0.953 ± 0.087 | 0.853 ± 0.015 | 0.999 ± 0.064 | 1.08 ± 0.089 | 1.08 ± 0.071 | 1.12 ± 0.1 | 1.16 ± 0.077 | 0.225 ± 0.08 | 0.155 ± 0.047 | 0.0307 ± 0.0061 | 0.0383 ± 0.0015 |
| SG27 HEADNECK | 1.05 ± 0.027 | 1.01 ± 0.041 | 1 ± 0.16 | 0.731 ± 0.054 | 0.97 ± 0.021 | 0.975 ± 0.075 | 0.999 ± 0.025 | 0.885 ± 0.022 | 1.04 ± 0.13 | 1.06 ± 0.13 | 1 ± 0.14 | 1.06 ± 0.079 | 1.68 ± 0.3 | 1.26 ± 0.088 | 0.071 ± 0.017 | 0.0733 ± 0.046 |
